Assay results as given in BindingDB's records for doi:10.1111/j.2042-7158.1986.tb04590.x (1986).

target: Sigma non-opioid intracellular receptor 1 (Cavia porcellus, UniProt Q60492)
Sequence (Q60492 whole entry): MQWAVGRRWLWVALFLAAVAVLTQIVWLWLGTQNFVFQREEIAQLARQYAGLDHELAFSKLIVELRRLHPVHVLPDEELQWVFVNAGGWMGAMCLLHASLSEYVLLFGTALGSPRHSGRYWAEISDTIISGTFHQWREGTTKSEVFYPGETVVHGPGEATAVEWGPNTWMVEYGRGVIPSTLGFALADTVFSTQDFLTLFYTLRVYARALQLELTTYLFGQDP

| Compound | Ki |
| --- | --- |
| CN(C)CCCN1c2ccccc2CCc2ccccc21 | 520 nM |
| CN(C)CCC=C1c2ccccc2CCc2ccccc21 | 300 nM |
| Clc1cccc(Cl)c1N=C1NCCN1 [2-(2,6-dichloroanilino)-2-imidazoline] | > 10000 nM |

Further lines, results first:

| Ki | Compound |
| --- | --- |
| 605 nM | CN(C)CCCN1c2ccccc2Sc2ccc(C(F)(F)F)cc21 [TRIFLUPROMAZINE] |
| 2000 nM | CNCCC=C1c2ccccc2CCc2ccccc21 [NORTRIPTYLINE] |
| 1470 nM | CN(C)CCCN1c2ccccc2Sc2ccc(Cl)cc21 [[3-(2-Chloro-phenothiazin-10-yl)-propyl]-dimethyl-amine(Chlorpromazine)] |
